pEC50: −log10 of the molar value. Starred links: 1 amine or outer side, 2 acyl side, 3 side chain; linkers in the order of their positions; H or OH if unused. Non-standard residues stand in square brackets, D forms with d. No end group written: not given here. γGlu = O=C(O)[C@H](CCC(=O)[*:2])N[*:1]; βAsp = O=C(O)[C@H](CC(=O)[*:2])N[*:1]; Abu = CC[C@H](N)C(=O)O

Data on 16 compounds can be found in article PMC8131363 (Scientific Reports, 2021).

In experiment [1] the target is domestic cat Calcium Sensing Receptor (cCaSR) (Felis catus).
The next experiment deals with T1, hCaSR (Homo sapiens, UniProt P41180).
T1 construct: expressed in transfected cells; host or cells: HEK293/natClytin (transient, pcDNA6 as delivered by GeneArt)
T1 sequence (P41180 20-1078): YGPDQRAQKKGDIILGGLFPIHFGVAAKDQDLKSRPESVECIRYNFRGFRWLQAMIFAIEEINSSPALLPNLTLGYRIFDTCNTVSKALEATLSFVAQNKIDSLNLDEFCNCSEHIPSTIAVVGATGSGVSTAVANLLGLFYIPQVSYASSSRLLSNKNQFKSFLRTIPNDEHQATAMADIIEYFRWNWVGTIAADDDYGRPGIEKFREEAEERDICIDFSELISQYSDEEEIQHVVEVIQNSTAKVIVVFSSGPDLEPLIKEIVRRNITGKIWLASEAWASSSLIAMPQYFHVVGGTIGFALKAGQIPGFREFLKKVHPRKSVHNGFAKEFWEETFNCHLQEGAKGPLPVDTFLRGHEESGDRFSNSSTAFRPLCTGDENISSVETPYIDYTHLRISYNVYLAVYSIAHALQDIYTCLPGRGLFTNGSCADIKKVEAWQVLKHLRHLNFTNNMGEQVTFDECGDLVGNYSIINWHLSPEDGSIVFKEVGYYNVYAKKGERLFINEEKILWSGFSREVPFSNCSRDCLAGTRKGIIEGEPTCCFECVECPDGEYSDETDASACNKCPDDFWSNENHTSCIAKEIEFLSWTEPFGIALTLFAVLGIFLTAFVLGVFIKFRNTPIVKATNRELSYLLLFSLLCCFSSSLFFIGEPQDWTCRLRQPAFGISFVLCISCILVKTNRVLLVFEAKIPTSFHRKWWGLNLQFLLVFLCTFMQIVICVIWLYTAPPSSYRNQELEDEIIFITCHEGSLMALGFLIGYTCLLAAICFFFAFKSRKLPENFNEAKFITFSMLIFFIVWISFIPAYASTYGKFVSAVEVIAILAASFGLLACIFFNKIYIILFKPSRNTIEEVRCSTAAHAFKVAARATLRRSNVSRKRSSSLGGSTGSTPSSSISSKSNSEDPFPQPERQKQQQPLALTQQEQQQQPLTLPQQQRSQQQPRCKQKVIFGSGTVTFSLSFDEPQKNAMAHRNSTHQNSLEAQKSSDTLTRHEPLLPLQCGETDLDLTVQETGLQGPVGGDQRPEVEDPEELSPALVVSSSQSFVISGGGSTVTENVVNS
The experiment in a line: hCaSR transiently expressed in HEK293/natClytin, agonist luminescence assay. The format is cell-based. Conditions: transiently expressed hCaSR; > 3 mM = maximal response not reached; read-out: hCaSR EC50. How it is done: (§1) The coding sequence of the Felis catus[52] and Homo sapiens[53] CaSR gene was synthesised by GeneArt (Thermo Fisher Scientific). The cat coding sequence was excised from the GeneArt construct and inserted in pcDNA3.1 for constitutive and transient expression or pcDNA5/ TO for inducible expression. For the human sequence the pcDNA6 vector as delivered by GeneArt was used without further sub-cloning.
(§2) All transient transfections were performed with Lipofectamine 2000 (Invitrogen) according to the manufacturer’s protocol.

Experiment [2] addresses T2, cCaSR (Felis catus, UniProt C7FF08).
T2 sequence (C7FF08 1-1081): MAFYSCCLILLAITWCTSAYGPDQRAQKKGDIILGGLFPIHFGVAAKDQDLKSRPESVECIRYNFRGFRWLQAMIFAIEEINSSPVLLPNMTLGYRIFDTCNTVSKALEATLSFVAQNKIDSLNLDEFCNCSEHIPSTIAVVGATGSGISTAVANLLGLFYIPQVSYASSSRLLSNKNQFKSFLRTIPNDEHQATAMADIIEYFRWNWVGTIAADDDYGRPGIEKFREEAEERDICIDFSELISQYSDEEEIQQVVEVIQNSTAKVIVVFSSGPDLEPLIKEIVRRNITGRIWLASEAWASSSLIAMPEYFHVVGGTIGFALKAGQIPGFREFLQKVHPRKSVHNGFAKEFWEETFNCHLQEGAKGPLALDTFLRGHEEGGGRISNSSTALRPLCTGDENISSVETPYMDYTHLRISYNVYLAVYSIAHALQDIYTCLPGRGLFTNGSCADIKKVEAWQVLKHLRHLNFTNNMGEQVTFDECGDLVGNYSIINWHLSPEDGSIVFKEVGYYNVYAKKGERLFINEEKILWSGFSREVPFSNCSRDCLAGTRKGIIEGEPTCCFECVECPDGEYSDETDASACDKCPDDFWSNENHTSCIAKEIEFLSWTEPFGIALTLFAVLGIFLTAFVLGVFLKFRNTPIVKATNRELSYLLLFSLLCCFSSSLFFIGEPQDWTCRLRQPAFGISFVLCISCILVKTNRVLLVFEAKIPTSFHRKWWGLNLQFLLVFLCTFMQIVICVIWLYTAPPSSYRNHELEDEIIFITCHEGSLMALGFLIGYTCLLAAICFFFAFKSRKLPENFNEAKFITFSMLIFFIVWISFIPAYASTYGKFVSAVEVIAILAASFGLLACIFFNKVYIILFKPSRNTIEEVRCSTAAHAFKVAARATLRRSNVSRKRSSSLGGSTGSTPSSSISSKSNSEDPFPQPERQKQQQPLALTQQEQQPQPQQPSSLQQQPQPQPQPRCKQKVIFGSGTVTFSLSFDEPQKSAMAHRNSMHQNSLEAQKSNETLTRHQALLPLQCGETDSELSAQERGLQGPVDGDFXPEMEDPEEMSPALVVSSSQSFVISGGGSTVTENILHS
The experiment in a line: cCaSR transiently expressed in HEK293/natClytin, agonist luminescence assay. The format is cell-based. The note with it: transiently expressed cCaSR; > 3 mM = maximal response not reached; read-out: cCaSR EC50. How it is done:
as §1, §2

Experiment [3] addresses T2, cCaSR.
Method: (§3) The cCaSR expression constructs were stably-transfected in the mammalian cell line, HEK293/ T-REx/ natClytin. Transfections were performed by electroporation, following standard methodologies. Stably-transfected target and mock pools were obtained after 2–3 weeks of antibiotic selection, and clones were selected for testing. In order to evaluate the activity of each clone, 10 mM Calcium was injected onto the cells and the resulting luminescence was measured.
(§4) All compounds screened on the receptor were analysed in parallel with Calcium, on the HEK293/ T-REx/ natClytin-cCaSR or hCaSR stable or transient cell lines. Prior to the measurements, the cells were incubated with 10 µM of photoprotein substrate, Coelenterazine, prepared in Calcium-free Tyrode’s buffer at 37 °C for 3–4 h. All the data was captured using a FLIPR Tetra (Molecular Devices). A single or double injection protocol was used to capture the data for potential agonists and PAMs, respectively. The compounds tested were all prepared at desired concentration in Calcium-Free Tyrode’s buffer supplemented with 0.5% DMSO. For the activity determination of potential agonists, the single injection protocol was used, with CaCl2 as the positive control for each run. Each compound was injected into specific wells and the luminescence signal was measured for 1 min. for each compound. For potential PAMs, the double injection protocol was used. The first injection was identical to the one described above for potential agonists. A 20 min. resting period followed the first injection and a second injection of 0.5 mM CaCl2 in Calcium-free Tyrode’s buffer was injected to all wells, and the resulting luminescence signal was again measured for 1 min for each compound.
(§5) Dose–response curves were established by plotting signal amplitudes versus agonist concentration. For each compound, the % of maximum response was determined using a standard formula as follows:
(§6) The half maximal effective concentrations (EC50) were identified by nonlinear regression using a variable slope model with the equation Y = Bottom + (X^Hillslope)*(Top–Bottom)/ (X^HillSlope + EC50^HillSlope), where Y is the agonist concentration, Top and Bottom are the plateaus in the same units as Y and HillSlope is the Slope factor or Hill slope. […] In these cases the EC50 was noted as being higher than the maximum concentration used in the assay.
The target in experiment [4] is T2, cCaSR. Put plainly: cell-based. Conditions: for pEC50: cCaSR activity, at least three wells.
Method: as §3, §4, §5, §6
Experiment [5] concerns the target T2, cCaSR. Put plainly: cCaSR PAM luminescence assay, double injection with 0.5 mM CaCl2, HEK293/T-REx/natClytin-cCaSR. Conditions: Supplementary Table I, PAM assay, dash = no activity.
The mark [6] stands for this setting: cCaSR stable EC50(mM), stably expressed cCaSR, Fig. 6b, > 3 mM = maximal response not reached.
[7] abbreviates: EC50 (M), agonist assay, stable inducible cCaSR line, > 0.01 M = maximal response not reached.
Where [8] appears, read: agonist assay, stable inducible cCaSR line.

As to [γGlu]-Trp, in experiment [1], the EC50 of agonist activity, luminescence (natClytin) in HEK T-Rex/natClytin cells inducibly expressing cCaSR, calcium-free buffer; activity grade + was more than 10 mM.
In the case of [γGlu]-[Abu]-Gly, the EC50 of agonist activity, luminescence (natClytin) in HEK T-Rex/natClytin cells inducibly expressing cCaSR, calcium-free buffer; activity grade ++ in experiment [1] turned out to be 2.65 mM.
With 3-Glutathionyl-S-methylindole (peptide), the EC50 of agonist activity, luminescence (natClytin) in HEK T-Rex/natClytin cells inducibly expressing cCaSR, calcium-free buffer; activity grade ++ in experiment [1] was 3.74 mM.
As for [βAsp]-Leu, the EC50 of agonist activity, luminescence (natClytin) in HEK T-Rex/natClytin cells inducibly expressing cCaSR, calcium-free buffer; activity grade + in experiment [1] is 3.15 mM.
Turning to [γGlu]-Ala, in experiment [1], the EC50 of agonist activity, luminescence (natClytin) in HEK T-Rex/natClytin cells inducibly expressing cCaSR, calcium-free buffer; activity grade + is more than 10 mM.
As for `NC[C@H]1O[C@H](O[C@H]2[C@H](O)[C@@H](O[C@H]3O[C@H](CO)[C@@H](O)[C@H](N)[C@H]3O)[C@H](N)C[C@@H]2N)[C@H](N)C[C@@H]1O` [Tobramycin, reference compound], the pEC50 at hCaSR was 3.80; at cCaSR [2], 3.55. Moreover, the “EC50 Ago (M)” value on cCaSR [3] (Supplementary Table I, agonist assay, dash = no activity) is given as “-”. For the same compound, a half-maximal effect at cCaSR [4] (setting [6]) (EC50) was put at 0.04 mM.
`N[C@@H](CC(=O)O)C(=O)O` [L-Aspartic acid]: the pEC50 is 1.92 on hCaSR, 1.93 on cCaSR [2] and 2.00 to 3.00 at cCaSR [4] (setting [8]). Also, the “agonist activity on cCaSR (in words)” value on cCaSR [3] is on record as “strong agonist activity”. For the same compound, the EC50 at cCaSR [4] (setting [7]) was 4.11 mM; at cCaSR [4] (EC50 Ago (M), Supplementary Table I, agonist assay, > 0.01 M = maximal response not reached), 4.11 mM. For the same compound, the “EC50 PAM (M)” value on cCaSR [5] is given as “-”.
S-Lactoylglutathione (peptide): the EC50 of agonist activity, luminescence (natClytin) in HEK T-Rex/natClytin cells inducibly expressing cCaSR, calcium-free buffer; activity grade + in experiment [1] is more than 10 mM.
[γGlu]-Val: the EC50 of agonist activity, luminescence (natClytin) in HEK T-Rex/natClytin cells inducibly expressing cCaSR, calcium-free buffer; activity grade ++ in experiment [1] was 4.52 mM.
Turning to `CC(C)[C@H](NC(=O)CC[C@H](N)C(=O)O)C(=O)NCC(=O)O` [γ-Glu-Val-Gly], the pEC50 is 2.39 on hCaSR and 2.44 at cCaSR [2]. In addition, the concentration giving a half-maximal response (EC50) at cCaSR [4] (setting [7]) is 4.22 mM; at cCaSR [4] (setting [6]), 6.9 mM. In addition, at cCaSR [5], the “EC50 PAM (M)” value is “-”.
`CC[C@H](NC(=O)CC[C@H](N)C(=O)O)C(=O)NCC(=O)O` [γ-Glu-Abu-Gly]: the negative-log EC50 (pEC50) at hCaSR was less than 2.52; at cCaSR [2], less than 2.52; at cCaSR [4] (setting [8]), 2.00 to 3.00. In addition, the 50% effective concentration (EC50) at cCaSR [4] (setting [7]) was 2.65 mM; at cCaSR [4] (setting [6]), more than 3 mM. Moreover, on cCaSR [5], the “EC50 PAM (M)” value was “-”.
With γ-D-Glu-Trp (peptide), the EC50 of agonist activity, luminescence (natClytin) in HEK T-Rex/natClytin cells inducibly expressing cCaSR, calcium-free buffer; activity grade ++ in experiment [1] is 4.2 mM.
Regarding [βAsp]-Phe, the EC50 of agonist activity, luminescence (natClytin) in HEK T-Rex/natClytin cells inducibly expressing cCaSR, calcium-free buffer; activity grade + in experiment [1] is more than 10 mM.
γ-Glu-Phe (peptide): the EC50 of agonist activity, luminescence (natClytin) in HEK T-Rex/natClytin cells inducibly expressing cCaSR, calcium-free buffer; activity grade ++ in experiment [1] is 2.32 mM.
In the case of [γGlu]-Leu, the EC50 of agonist activity, luminescence (natClytin) in HEK T-Rex/natClytin cells inducibly expressing cCaSR, calcium-free buffer; activity grade + in experiment [1] is more than 10 mM.
Still for that read-out and setting: to [γGlu]-Gly belongs more than 10 mM.
